Assay results published in patent publication US20070190046A1, “Anti-abeta antibody” (Eli Lilly and Company, priority 2004, published 2007).

System: Aβ peptide naturally expressed by HEK 293 cells
Assay: Acid urea gel / western blot analysis of Aβ peptide in purified antibody from HEK 293 cell culture with γ-secretase inhibitor
Format: cell-based, human
Conditions: for FL (Full length hAβ40) / T2 (N-terminal truncated hAβ40, #2): no-inhibitor control 70; for T1 (N-terminal truncated hAβ40, #1): no-inhibitor control 38; for Total hAβ40: no-inhibitor control 178
Description: A γ-secretase inhibitor, [drawing 1] (WO 98/28268), is added to the HEK 293 cell culture in which an anti-Aβ antibody is being expressed to reduce the amount of Aβ peptide naturally expressed by cells. Cell culture samples for this example include a control culture with no inhibitor added, a culture in which 1 nM inhibitor is added at time=0 and every 24 hours thereafter for 5 days (for a 5 day transfection), and a culture in which 1 nM inhibitor is added at time=0. These samples are purified using a Protein A column as well as size exclusion chromatography. The samples are analyzed for Aβ peptide content by acid-urea gel separation and subsequent western blot analysis as detailed below.
The following protocol describes a technique for formic acid denaturation of samples and subsequent electrophoresis through an acid-urea polyacrylamide matrix:
• 1) Clean and assemble acrylamide gel plates for casting. For example, Hoeffer plates into a casting stand (16 cm×14 cm plates with 1.5 mm spacers). Clean plates thoroughly with detergent, rinse in distilled H2O(dH2O), rinse with acetone, and finally rinse with 100% EtOH. • 2) Mark plates at 10 cm (22% separating gel) and 11.75 cm (10% step gel). Making the Gel and Gel Concentrations • 1) Acrylamide (40% solution, such as pre-made Bio-Rad/cat#161-0148)
• Add urea, acrylamide, glacial acetic acid (GAA), and dH2O into 50 mL conical tubes. Vortex briefly and incubate in a 55° C. water bath. Vortex every few minutes until the urea is completely in solution. Degas 22% and 10% solutions and place solutions on ice, leaving the 4% stacker in the water bath. Pouring the Gel (at Room Temperature) • 1) Add N,N,N′,N′-tetramethylethylenediamine (TEMED) to the 22% solution and gently invert several times to mix. Next add the 10% APS (ammonium persulfate) and invert several times. Using a 25 mL pipette, slowly pour solution between the plates until it reaches the 10 cm mark. • 2) Carefully add a 750 μL overlay of 5% GAA. Use a P1000 pipette to very slowly let the 5% GAA run down one side of the glass plates onto the 22% resolving gel. • 3) Allow to polymerize at room temperature for at least 1 hour. • 4) Add the TEMED and 10% APS to the 10%-acrylamide solution in the same manner as for the 22%. Remove the overlay and add the solution until reaching the second mark at 11.75 cm. Again, carefully pour a 750 μL overlay of 5% GAA as above. Allow the gel to polymerize for 30 minutes. • 5) Prior to adding the 4% stacker solution, place the gel stand in a 37° C. incubator for 15 minutes to warm gels. This aids in the wells polymerizing correctly. Degas the 4% stacker solution and keep at 55° C. Remove the overlay. Add the TEMED, invert several times, and then add the 10% APS. Quickly pour this solution and insert a clean-dry 12-well comb (or a 15-well comb). After pouring the stacker, place the stand back in the incubator for 15 minutes then remove. Allow to polymerize on the bench top. The stacker will take at least 1.5 hours to polymerize completely. • *Note: During the polymerization steps, air pockets may appear in the resolving gel. These pockets form due to the change in temperature of the gel during and after polymerization. […] Sample Preparation • Analysis upwards of 3 mg of protein in a single lane will achieve reasonable band results. Conditions for analyzing protein are as follows.
Sample: • 30 μL of […] protein (maximum concentration of protein) • 80 μL formic acid (98%) (ICN cat#15162-90) • 20 μL Acid Loading Buffer (80% formic acid, 60% sucrose and 0.02% methyl green; • Make buffer by dissolving 6 g sucrose in ˜8 mL of ˜99% formic acid. Heat and agitate the mixture. After the sucrose has dissolved, the volume of the solution is adjusted to 10 mL with ˜99% formic acid. Add 2 μL of 1% methyl green solution.) • 1 μl β-Mercaptoethanol • *Note: Adjust volumes as needed. […]

[1] = HEK 293 culture, 1 nM inhibitor added at time=0 only
[2] = HEK 293 culture, 1 nM inhibitor at time=0 and every 24 hours for 5 days

C[C@H](NC(=O)[C@@H](O)c1cc(F)cc(F)c1)C(=O)N[C@@H]1C(=O)N(C)c2ccccc2-c2ccccc21 [Inhibitor]
FL (Full length hAβ40) (HEK 293 culture expressing anti-Aβ antibody, 1 nM inhibitor added at time=0 and every 24 hours for 5 days): 4 pg/μg IgG | T1 (N-terminal truncated hAβ40, #1) [1]: 27 pg/μg IgG | FL (Full length hAβ40) [1]: 56 pg/μg IgG | T2 (N-terminal truncated hAβ40, #2) [1]: 52 pg/μg IgG | Total hAβ40 [1]: 135 pg/μg IgG | T1 (N-terminal truncated hAβ40, #1) [2]: 0 pg/μg IgG | T2 (N-terminal truncated hAβ40, #2) [2]: 3 pg/μg IgG | Total hAβ40 [2]: 7 pg/μg IgG
